In ChEMBL document CHEMBL3600327, “Synthesis of a novel series of fluoroarene derivatives of artemisinin as potent antifungal and anticancer agent” (Bioorg Med Chem Lett, 2015):

Legend:
[1] = test system: Fusarium oxysporum; assay: Antifungal activity against Fusarium oxysporum assessed as inhibition of mycelia growth at 1000 ppm after 1 week by filter paper method relative to control; format: functional; settings: 168 h, read-out: GI
[2] = test system: Fusarium oxysporum; assay: Antifungal activity against Fusarium oxysporum assessed as inhibition of mycelia growth at 200 ppm after 1 week by filter paper method relative to control; format: functional; settings: 168 h, read-out: GI
[3] = test system: Fusarium oxysporum; assay: Antifungal activity against Fusarium oxysporum assessed as inhibition of mycelia growth at 600 ppm after 1 week by filter paper method relative to control; format: functional; settings: 168 h, read-out: GI
[4] = test system: Fusarium oxysporum; assay: Antifungal activity against Fusarium oxysporum assessed as inhibition of mycelia growth at 800 ppm after 1 week by filter paper method relative to control; format: functional; settings: 168 h, read-out: GI
[5] = test system: Fusarium oxysporum; assay: Antifungal activity against Fusarium oxysporum assessed as inhibition of mycelia growth at 400 ppm after 1 week by filter paper method relative to control; format: functional; settings: 168 h, read-out: GI
[6] = test system: HeLa; assay: Cytotoxicity against human HeLa cells measured at 48 hrs by MTT assay; format: functional, cell-based

Row | Compound | inhibition of growth at 1000 ppm [1] [%] | inhibition of growth at 200 ppm [2] [%] | inhibition of growth at 600 ppm [3] [%] | inhibition of growth at 800 ppm [4] [%] | inhibition of growth at 400 ppm [5] [%] | IC50 [6] [µM]
1 | C#CCO[C@H]1O[C@@H]2O[C@@]3(C)CC[C@H]4[C@H](C)CC[C@@H]([C@H]1C)[C@@]24OO3 | 72 | 64.8 | 68.8 | 70.2 | 66.4 | 
2 | C#CCCO[C@H]1O[C@@H]2O[C@@]3(C)CC[C@H]4[C@H](C)CC[C@@H]([C@H]1C)[C@@]24OO3 | 77.6 | 70 | 75.4 | 76.8 | 73.2 | 
3 | C[C@H]1[C@@H](OCCC#Cc2ccc(-c3ccc(F)cc3)cc2)O[C@@H]2O[C@@]3(C)CC[C@H]4[C@H](C)CC[C@@H]1[C@@]24OO3 | 72.8 | 67 | 70.2 | 71 | 67.9 | 13.1
4 | C[C@H]1[C@@H](OCCC#Cc2ccc(-c3cccc(C(F)(F)F)c3)cc2)O[C@@H]2O[C@@]3(C)CC[C@H]4[C@H](C)CC[C@@H]1[C@@]24OO3 | 70.2 | 65.6 | 67.6 | 69 | 66.5 | 
5 | C[C@H]1[C@@H](OCCC#Cc2ccc(-c3ccc(F)cc3)s2)O[C@@H]2O[C@@]3(C)CC[C@H]4[C@H](C)CC[C@@H]1[C@@]24OO3 | 71 | 66.4 | 68 | 69.9 | 66.9 | 36.6
6 | C[C@H]1[C@@H](OCCC#Cc2cccc(-c3ccc(F)cc3)c2)O[C@@H]2O[C@@]3(C)CC[C@H]4[C@H](C)CC[C@@H]1[C@@]24OO3 | 69.8 | 64 | 66.4 | 68 | 65.2 | 112
7 | C[C@H]1[C@@H](OCC#Cc2ccc(F)cc2)O[C@@H]2O[C@@]3(C)CC[C@H]4[C@H](C)CC[C@@H]1[C@@]24OO3 | 59 | 53.5 | 56 | 57.6 | 54.4 | 26.3
8 | C[C@H]1[C@@H](OCC#Cc2cccc(F)c2)O[C@@H]2O[C@@]3(C)CC[C@H]4[C@H](C)CC[C@@H]1[C@@]24OO3 | 65.2 | 60 | 62 | 64 | 61.8 | 14
9 | C[C@H]1[C@@H](OCC#Cc2ccccc2F)O[C@@H]2O[C@@]3(C)CC[C@H]4[C@H](C)CC[C@@H]1[C@@]24OO3 | 57.6 | 53.6 | 55.2 | 56.8 | 54.2 | 139
10 | C[C@H]1[C@@H](OCCC#Cc2ccc(F)nc2)O[C@@H]2O[C@@]3(C)CC[C@H]4[C@H](C)CC[C@@H]1[C@@]24OO3 | 67.8 | 62.4 | 65 | 66.4 | 63.9 | 20.9
11 | C[C@H]1[C@@H](OCC#Cc2ccc(F)nc2)O[C@@H]2O[C@@]3(C)CC[C@H]4[C@H](C)CC[C@@H]1[C@@]24OO3 | 63.8 | 56.4 | 61 | 62.5 | 58.4 | 
12 | C[C@@H]1CC[C@H]2[C@@H](C)C(=O)O[C@@H]3O[C@@]4(C)CC[C@@H]1[C@]32OO4 [ARTEMISININ] | 78.5 | 72 | 76 | 77.2 | 75.5 | 493
